In article PMC10784468 (Nature Communications, 2024):
Positions of bridges follow the written chain, without caps; N, C: chain ends. Residues, ends and D or L forms follow the SMILES beside them. *: point of attachment. X1 = O=C(O)c1ccc(-c2c3nc(c(-c4ccc(C(=O)O)cc4)c4ccc([nH]4)c(-c4ccc(C(=O)*)cc4)c4nc(c(-c5ccc(C(=O)O)cc5)c5ccc2[nH]5)C=C4)C=C3)cc1; X2 = O=C(O)C/C(=C/C(=O)*)C(=O)O

Legend:
[1] = Morphology and size by TEM; type: physicochemical; settings: PBS 0.01 M, pH 6.5, 1 h, 40 μM
Procedure: Nano-ZS 3600 (Malvern Instruments, UK) was used to measure the size distribution of the peptide-porphyrin conjugate solutions. The conjugate solutions (40 μM) were incubated at pH 7.4 or pH 6.5 before measurements. An average value was determined by three repeated measurements at 25 °C for each sample. Besides, transmission electron microscopy (TEM, Tecnai G2 20 S-TWIN) was conducted to observe the morphology and diameters of conjugates in aqueous solution, The conjugates (50 μL, 40 μM) were kept in PB solution at pH 7.4 or pH 6.5, which were dropped on copper meshes. After 5 min, unnecessary liquid was removed and the uranyl acetate solution (10 μL) was dropped on this copper mesh to stain the samples for 10 min. Finally, the copper meshes were washed with deionized water, and dried at room temperature for observation.

EJ cells [2] = experiment: Intracellular ROS detection (DCFH-DA); type: cell-based; settings: pH 6.5, 40 μM, 8 h
Procedure: Initially, EJ cells (5 × 10^5) were cultured in confocal dish with a CO2 incubator overnight at 37 °C. […] Afterwards, EJ cells were washed with PBS for 3 times and replaced with culture mediums.

EJ cells [3] = experiment: Intracellular LPO fluorescence imaging (C11-BODIPY); type: cell-based; settings: pH 6.5, 40 μM, 8 h
Procedure: Initially, EJ cells (5 × 10^5) were cultured in confocal dish with a CO2 incubator overnight at 37 °C. […] Next, EJ cells were collected and washed with PBS for 3 times.

EJ tumor tissues = experiment: Tumor ROS content detection; type: in vivo, BALB/c nude mice; settings: 8 mg/kg i.v., versus PBS, Gi-F and Gi-F-SA
Procedure: EJ tumor tissues were collected under euthanasia at the end of treatment and washed with PBS for 3 times. Next, DCFH-DA fluorescence staining was carried out by Wuhan Servicebio Technology Co., Ltd.

[4] = •OH by TPA fluorescence assay, turnover frequency; settings: TPA fluorescence 425 nm, H2O2 concentration-dependent
Procedure: The generation of •OH was determined by the Magnettech MS-5000 EPR spectrometer. Typically, peptide-porphyrin conjugates (40 μM) were exposed to H2O2 (200 μM) for 3 min in the presence of 5,5-dimethyl-1-pyrroline-N-oxide (DMPO, 100 μM). The •OH signal was immediately detected by the EPR spectrometer. The amount of •OH was measured by using TPA as an indicator that following the increasement of HTPA fluorescence in the conjugate solution. Briefly, TPA (50 μL, 2 mM) and fresh conjugate solution (50 mM) were mixed with 1 ml H2O, and then the solution was exposed to various concentration of H2O2. The fluorescence at 425 nm (λex = 310 nm) was recorded at 5 min to determine the concentration of •OH, which can further be applied for calculating the TOF of peptide-porphyrin conjugates.
Supplementary Fig. 21. Terephthalic acid (TPA) reacts with hydroxyl radical in solution to produce stable and strong fluorescent substances (Ortho -hydroxyterephthalic acid, HTPA). The reaction is used to quantitatively analyze •OH produced by Gi -F under the H2O2 treatment (a). Plot showing the linear relationship of relative fluorescence intensity with H 2O2 concentration (b). The fluorescence of different concentration of HTPA at 425 […]
(1 picture or pasted object on this page, not shown here)

Row | Compound | particle size (TEM) [1] [nm] | intracellular ROS (DCFH-DA) (EJ cells [2]) | intracellular LPO (BODIPY 581/591 C11) (EJ cells [3]) | ROS levels of tumor tissues (EJ tumor tissues) | turnover frequency (TOF) [4] [s⁻¹]
1 | CC(C)C[C@H](NC(=O)c1ccc(-c2c3nc(c(-c4ccc(C(=O)O)cc4)c4ccc([nH]4)c(-c4ccc(C(=O)O)cc4)c4nc(c(-c5ccc(C(=O)O)cc5)c5ccc2[nH]5)C=C4)C=C3)cc1)C(=O)N[C@@H](CCCCNC(=O)/C=C(/CC(=O)O)C(=O)O)C(=O)N[C@@H](CC(C)C)C(=O)N[C@@H](CCCCN)C(=O)N[C@@H](CC(C)C)C(=O)N[C@@H](CCCCNC(=O)/C=C(/CC(=O)O)C(=O)O)C(=O)NCC(=O)N[C@@H](C)C(=O)N[C@H]1CSSC[C@@H](C(=O)N2CCC[C@H]2C(=O)N[C@H](C(=O)O)C(C)C)NC(=O)[C@@H]2CCCN2C(=O)[C@H](Cc2ccc(O)cc2)NC(=O)[C@H](CC(C)C)NC(=O)[C@@H]2CCCN2C(=O)[C@H](CC(C)C)NC(=O)[C@H](Cc2c[nH]c3ccccc23)NC(=O)[C@H](CC(N)=O)NC1=O [Gi-F-CAA] (X1-LK(X2)LKLK(X2)GACNWLPLYPCPV-OH; disulfide 9-17; C-terminus assumed) | 57 ± 9 | Apparent green fluorescence | extensive accumulation of LPO | elevation | –
2 | FeTCPP-LKLKLKGACNWLPLYPCPV (disulfide) [Gi-F] | – | – | – | – | 0.022
